Test results: patent US20040023362A1, “Degradation of polycyclic aromatic hydrocarbons by microorganisms” (priority 2000, published 2004)
In brackets after ≈: the same amount, converted by molar mass.

Tests used:
[1] = tested on: Bacterial consortium VUN 10,009; assay: Degradation of high molecular weight PAHs by axenic cultures; assay type: cell-based
Experimental: (§1) PAH concentrations in the DCM extracts were measured on a Varian Star 3400 gas chromatograph, equipped with a flame ionization detector, using a BPX-5 capillary column (25 m×0.22 mm). The nitrogen carrier flow rate was 0.8 ml min^−1 with a pressure of 20 psi under split conditions (95:1). The oven temperature was programmed at 200° C. for 1 min, followed by a linear increase of 10° C. min^−1 to 320° C.; this temperature was held for 15 min. Injector and detector temperatures were maintained at 300° C. The peak areas of both internal standard and PAH were used to calculate peak area ratios. Ratios obtained for each sample, as well as controls, were compared to those of PAH standards.
(§2) PAH degradation experiments using axenic bacterial and fungal cultures, and fungal-bacterial co-culture, were performed in 30 ml reaction vials containing 10 ml of medium. Before inoculation, 0.1 ml of PAH stock solution (either single PAH or mixed PAH stock as described above) was introduced into the medium. This medium was then inoculated with microorganisms to produce either axenic cultures or co-cultures. Axenic cultures were inoculated with either bacteria (1 ml) to provide an initial cell population of approximately 10^4 cells ml^−1, or with mycelial pellets (0.25 g wet weight) in 10 ml of BSM. For the co-culture experiments, BSM (10 ml) contained bacteria (10^4 cells ml^−1) and 0.25 g wet weight of mycelial pellets. Experiments to investigate of co-metabolic PAH degradation by P. janthinellum were conducted with the PAH in BSM supplemented with glucose (1% final concentration) or MYPD medium. […] Medium (10 ml) was inoculated with fungal or bacterial culture using the same inoculum size as described above. All cultures were aseptically flushed with filtered (0.22 μm) air (0.2 litres min^−1) for 5 seconds on the day of inoculation and every 7 days thereafter. Abiotic controls were sterile medium containing only PAH(s). Killed-cell controls were the PAH-containing medium inoculated with a killed microbial population. The experimental cultures were conducted in triplicate, and all controls were run in duplicate. All cultures were incubated in the dark at 30° C./175 rpm. At designated time intervals the entire culture (10 ml) was sacrificed for the PAH-extraction procedure and biomass determinations.

VUN 10,010 = assay: as above; assay type: cell-based, Stenotrophomonas maltophilia
Experimental: as §1, §2

[2] = tested on: P. janthinellum VUO 10,201; assay: as above; assay type: cell-based, Penicillium janthinellum
Experimental: as §1, §2

[3] = tested on: S. maltophilia VUN 10,010; assay: Degradation of single high molecular weight PAHs by high initial populations of VUN 10,010 with surfactant; assay type: cell-based, Stenotrophomonas maltophilia
Experimental: […] Incubations contained a single PAH in BSM at 30° C. The PAH remaining was calculated as a percentage relative to the PAH recovered from the […]. Averages for the test cultures are from triplicate experiments.
Tergitol NP-10 (5 and 10 g l^−1) was added to BSM broths each containing a single high molecular weight PAH.

[4] = tested on: S. maltophilia VUN 10,010; assay: Degradation of a PAH mixture by VUN 10,010 with surfactant, low initial cell population; assay type: cell-based, Stenotrophomonas maltophilia; conditions: for Maximum Specific Degradation Rate: — = not appreciable
Experimental: The incubations were conducted in BSM at 30° C., using low initial cell populations. The PAH remaining was calculated as a percentage relative to the PAH recovered from the uninoculated control. Averages for the test cultures are from triplicate experiments.
A low initial cell population of around 9×10^3 cells ml^−1 was used.

physchem = assay: physchem
Experimental: PAHs (approximately 1 g l^−1) were added to a 10 ml solution of BSM plus surfactant in a 30 ml glass reaction vial, which was sealed with an aluminium cap fitted with a septum. Surfactant concentrations corresponded to levels above, below, and at the CMC, and replicates were set up to allow sampling in duplicate at different time intervals up to 72 h. Incubation was performed at 30° C. and 175 rpm. The entire vial contents was collected by syringe and expressed through a preconditioned membrane filter (0.22 μm, Sartorius AG, Germany) to remove solid-phase crystalline PAH while allowing solubilized PAH in the aqueous phase and micellar pseudophase to pass into sterile vials. The filter was preconditioned by purging the filter with a few mls of sample solution to allow sorption saturation of the internal surfaces of the syringe, filter and needle. The filtrates were extracted with dichloromethane (DCM), and the concentration of solubilized PAH was determined by GC-FID as described below.
The effectiveness of a particular surfactant in solubilizing a given PAH can be assessed by determining the molar solubilization ratio (MSR) and micelle/water partition coefficient (Km). In our study, the concentrations of added PAHs were well in excess of aqueous saturation concentrations; therefore the MSR value of each compound can be obtained from the slope of the curve generated from a plot of PAH concentration versus surfactant concentration for surfactant concentrations above CMC (Edwards et al, 1991).
Km values can be determined from the measured MSR values according to the following equation (Edwards et al, 1991): [formula]
^SPAH, CMC is the apparent solubility of the PAH (mol l^−1) at surfactant CMC. VW is the molar volume of water at 30° C. ie. 0.018015 l mol^−1(Rogers and Mayhew, 1981).

strain VUN 10,010 = assay: Agar (well) diffusion toxicity test of surfactants; assay type: cell-based, Stenotrophomonas maltophilia; conditions: peptone-glucose agar, 30° C.
Experimental: The agar diffusion method was used to determine the effects of surfactants on growth by observing zones of inhibition on peptone-glucose agar (Cserhali et al, 1991). The medium contained per litre: 5 g peptone, 5 g glucose, 0.5 g NaCl, 3 g beef extract, 20 g agar; the pH was adjusted to 7.0 and sterilized by autoclaving for 15 min at 121° C. Bacterial cultures were mixed with the molten medium (25 ml) to obtain an inoculum size of approximately 10^8 cells ml^−1, and this was poured into a Petri dish. Once the cell-medium mixture had solidified, 7 mm diameter holes were made, and 150 μl of aqueous surfactant solutions was added (0.1-10.0 g l^−1). Growth inhibition zones were observed after 48-72 h at 30° C.

[5] = BSM + PYR (pyrene 250 mg l^−1), 28 day samples
[6] = Tergitol NP-10 5 g l^−1, Single PAH
[7] = Tergitol NP-10 10 g l^−1, Single PAH
[8] = Tergitol NP-10 5 g l^−1, Mixed PAH

Compound	PAH removal (%) [1, 5]	PAH removal (%) ([1]; BSM, 56 day samples)	PAH removal (%) (VUN 10,010; [5])	PAH removal (%) (VUN 10,010; BSM, 56 day samples)	PAH removal (%) ([2]; BSM, 56 day samples)	PAH removal (%) ([2]; BSM^g, 28 day samples)	PAH removal (%) ([2]; MYPD, 28 day samples)	Maximum Specific Degradation Rate ([3]; Brij 35 5 g l^−1, Single PAH)	percentage change in maximum specific degradation rate due to surfactant addition ([3]; Brij 35 5 g l^−1, Single PAH)	Maximum Specific Degradation Rate ([3]; Brij 35 10 g l^−1, Single PAH)	percentage change in maximum specific degradation rate due to surfactant addition ([3]; Brij 35 10 g l^−1, Single PAH)	Maximum Specific Degradation Rate ([3]; No Surfactant, Single PAH)	Maximum Specific Degradation Rate [3, 6]	percentage change in maximum specific degradation rate due to surfactant addition [3, 6]	Maximum Specific Degradation Rate [3, 7]	percentage change in maximum specific degradation rate due to surfactant addition [3, 7]	Maximum Specific Degradation Rate ([4]; No Surfactant, Mixed PAH)	percentage change in maximum specific degradation rate due to surfactant addition [4, 8]	Maximum Specific Degradation Rate [4, 8]	also measured
c1ccc2cc3c(ccc4ccccc43)cc2c1 [Benz[a]anthracene, benz[a]anthracene]	9.6 + 0.7%	7.8 ± 0.3%	19.84 + 0.3%	8.2 ± 1.6%	9.1 ± 1.4%	18.1 ± 2.3%	23.1 ± 1.2%	7.18 mg PAH degraded mg^−1 protein day^−1	+63%	7.37 mg PAH degraded mg^−1 protein day^−1	+67%	4.41 mg PAH degraded mg^−1 protein day^−1	9.66 mg PAH degraded mg^−1 protein day^−1	+119%	11.14 mg PAH degraded mg^−1 protein day^−1	+153%	1.71 mg PAH degraded mg^−1 protein day^−1	+90%	3.25 mg PAH degraded mg^−1 protein day^−1	
c1ccc2c(c1)cc1ccc3cccc4ccc2c1c34 [Benzo[a]pyrene, benzo[a]pyrene]	23.3 + 0.5%	6.7 ± 0.9%	32.2 + 1.2%	12.3 ± 1.0%	16.9 ± 0.2%	56.5 ± 2.4%	72.2 ± 3.2%	5.84 mg PAH degraded mg^−1 protein day^−1	−6%	5.47 mg PAH degraded mg^−1 protein day^−1	−12%	6.21 mg PAH degraded mg^−1 protein day^−1	6.73 mg PAH degraded mg^−1 protein day^−1	+8%	7.90 mg PAH degraded mg^−1 protein day^−1	27%	1.43 mg PAH degraded mg^−1 protein day^−1	+201%	4.30 mg PAH degraded mg^−1 protein day^−1	solubility (physchem; 30° C.): ~0.0159 µM (≈ 0.00401 µg/mL); solubility (physchem; 30 °C, aqueous with cosolvent or surfactant or cyclodextrin, thermodynamic from solid): 160 to 180 µM (≈ 40.4 to 45.4 µg/mL)
CCCCCCCCCCCCCCCC[N+](C)(C)C.[Br-] [CTAB]																				inhibitory concentration in well diffusion toxicity test (strain VUN 10,010): 0.01 to 0.05 g/L
c1ccc2c(c1)ccc1c3ccccc3ccc21 [Chrysene, chrysene]	12.1 + 0.4%	8.2 ± 0.5%	28.3 + 1.2%	9.1 ± 1.2%	12.2 ± 0.4%	25.6 ± 1.9%	31.7 ± 3.7%	7.35 mg PAH degraded mg^−1 protein day^−1	+64%	7.93 mg PAH degraded mg^−1 protein day^−1	+77%	4.49 mg PAH degraded mg^−1 protein day^−1	6.44 mg PAH degraded mg^−1 protein day^−1	+43%	4.16 mg PAH degraded mg^−1 protein day^−1	−7%	1.42 mg PAH degraded mg^−1 protein day^−1	+94%	2.76 mg PAH degraded mg^−1 protein day^−1	PAH degradation rate in the presence of surfactants ([3]; Tergitol NP-10 5 and 10 g l^−1, high initial cell population): did not show improved PAH degradation rate
c1ccc2c(c1)ccc1cc3c(ccc4ccccc43)cc12 [Dibenz[a,h]anthracene, dibenz[a,h]anthracene]	13.8 + 0.9%	5.9 ± 0.5%	26.7 + 0.7%	7.8 ± 0.6%	12.9 ± 0.3%	24.4 ± 2.7%	36.7 ± 1.7%	6.26 mg PAH degraded mg^−1 protein day^−1	+50%	7.20 mg PAH degraded mg^−1 protein day^−1	+73%	4.17 mg PAH degraded mg^−1 protein day^−1	7.32 mg PAH degraded mg^−1 protein day^−1	+76%	8.74 mg PAH degraded mg^−1 protein day^−1	110%	1.20 mg PAH degraded mg^−1 protein day^−1	+140%	2.89 mg PAH degraded mg^−1 protein day^−1	concentration in the aqueous phase (physchem; at surfactant CMC, gas chromatograph): below the detection limit
c1cc2ccc3cccc4ccc(c1)c2c34 [Pyrene, pyrene]		100.0 ± 0.0%		100.0 ± 0.0%	3.3 ± 0.3%	80.3 ± 2.8%	93.6 ± 2.8%													
CCCCCCCCCCCCOS(=O)(=O)[O-].[Na+] [SDS]																				MIC (strain VUN 10,010): 200 mg/L
